Results reported in the supplement of paper PMC11451515.

Assays:
Details in all cases: 48 h
NOMO1 [1] = test: AUC of viability dose-response curve (% viability x log10 dose units); higher = less sensitive
Procedure, shortened: (§1)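 Viability of medium-adapted leukemia cells was measured by CellTiter-Glo One luminescence after 48 h at 37°C with library compounds in DMSO. Doses were 11 threefold steps from 47 μM to 0.79 nM, in 1536-well plates at 500 or 1000 cells/well. Signals were normalised per plate to DMSO and cell-free wells and fitted with a four-parameter log-logistic model on log10 dose. Area under the curve was integrated by trapezoidal rule, with curves exceeding full viability scaled and failed quality-control curves removed.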

SEM cells [2] = test: as above
Procedure, shortened: as §1

P12-Ichikawa [3] = test: as above
Procedure, shortened: as §1

NOMO1 [4] = test: cell viability relative to DMSO control; higher = less cytotoxic
Procedure, shortened: (§2)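 Library compounds in DMSO were pin-dosed in an 11-point threefold series (47 μM to 0.79 nM) onto leukemia cells in 1536-well plates (5 μl). Plates held 500 cells/well of NOMO1 or SEM or 1000 cells/well of P12-Ichikawa, each adapted for at least four passages in each medium. Luminescence was read with CellTiter-Glo One after 48 h at 37°C. Viability means the per-plate percentage relative to DMSO wells, using cell-free wells as background.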

SEM cells [5] = test: as above
Procedure, shortened: as §2

P12-Ichikawa [6] = test: as above
Procedure, shortened: as §2

O=C(Nc1ccncc1)C(=O)c1cn(Cc2ccc(Cl)cc2)c2ccccc12
AUC of viability dose-response curve
Details	NOMO1 [1]	P12-Ichikawa [3]	SEM cells [2]
HPLM + 10% dialyzed FBS	306	281	249
RPMI 5 mM glucose + 10% FBS	315	275	237
RPMI 5 mM glucose + 10% dialyzed FBS	311	288	247

cell viability [%]
Details	NOMO1 [4]	P12-Ichikawa [6]	SEM cells [5]
HPLM + 10% dialyzed FBS, 0.000781 µM	106	103	92.5
HPLM + 10% dialyzed FBS, 0.00234 µM	110	101	94
HPLM + 10% dialyzed FBS, 0.00702 µM	116	111	91.7
HPLM + 10% dialyzed FBS, 0.0211 µM	105	96.6	81.9
HPLM + 10% dialyzed FBS, 0.0632 µM	77.9	70.5	54.8
HPLM + 10% dialyzed FBS, 0.19 µM	38.1	35	31.5
HPLM + 10% dialyzed FBS, 0.569 µM	34	18.4	29.4
HPLM + 10% dialyzed FBS, 1.71 µM	32.7	21.8	24.7
HPLM + 10% dialyzed FBS, 5.12 µM	36.2	40.1	25.7
HPLM + 10% dialyzed FBS, 15.4 µM	60.6	35.2	28.5
HPLM + 10% dialyzed FBS, 46.1 µM	61.7	46.5	26.3
RPMI 5 mM glucose + 10% FBS, 0.000781 µM	95.5	104	130
RPMI 5 mM glucose + 10% FBS, 0.00234 µM	98.1	98.6	105
RPMI 5 mM glucose + 10% FBS, 0.00702 µM	89.3	107	122
RPMI 5 mM glucose + 10% FBS, 0.0211 µM	89.2	96.5	114
RPMI 5 mM glucose + 10% FBS, 0.0632 µM	100	62.8	57.7
RPMI 5 mM glucose + 10% FBS, 0.19 µM	46.2	34.8	33
RPMI 5 mM glucose + 10% FBS, 0.569 µM	26.3	16.5	17.8
RPMI 5 mM glucose + 10% FBS, 1.71 µM	22.6	24.3	18.2
RPMI 5 mM glucose + 10% FBS, 5.12 µM	53.7	34.1	18.7
RPMI 5 mM glucose + 10% FBS, 15.4 µM	44.1	39.2	22.2
RPMI 5 mM glucose + 10% FBS, 46.1 µM	61.9	44.1	28
RPMI 5 mM glucose + 10% dialyzed FBS, 0.000781 µM	88.2	90.9	107
RPMI 5 mM glucose + 10% dialyzed FBS, 0.00234 µM	91.2	94.2	88.4
RPMI 5 mM glucose + 10% dialyzed FBS, 0.00702 µM	116	97.2	95.3
RPMI 5 mM glucose + 10% dialyzed FBS, 0.0211 µM	106	98.2	75.9
RPMI 5 mM glucose + 10% dialyzed FBS, 0.0632 µM	80.4	79.1	58.5
RPMI 5 mM glucose + 10% dialyzed FBS, 0.19 µM	45.4	46.5	27.7
RPMI 5 mM glucose + 10% dialyzed FBS, 0.569 µM	28.3	20.8	23.9
RPMI 5 mM glucose + 10% dialyzed FBS, 1.71 µM	34.7	23.1	20.9
RPMI 5 mM glucose + 10% dialyzed FBS, 5.12 µM	45.3	34.6	26.6
RPMI 5 mM glucose + 10% dialyzed FBS, 15.4 µM	39.7	36.2	25.3
RPMI 5 mM glucose + 10% dialyzed FBS, 46.1 µM	49.4	46.6	30.5

CC(C)C[C@H](NC(=O)c1cc2ccccc2s1)C(=O)N1CCN(C(=O)[C@H](CO)N[S+](=O)([O-])c2ccc(Cl)cc2Cl)CC1
AUC of viability dose-response curve
Details	NOMO1 [1]	P12-Ichikawa [3]	SEM cells [2]
HPLM + 10% dialyzed FBS	461	462	451
RPMI 5 mM glucose + 10% FBS	468	464	453
RPMI 5 mM glucose + 10% dialyzed FBS	436	462	439

Cc1ccccc1C(C(=O)NC1CCCC1)N(C(=O)Cn1cnc2ccccc21)c1cccc(F)c1 (stereo not given)
AUC of viability dose-response curve
Details	HPLM + 10% dialyzed FBS	RPMI 5 mM glucose + 10% FBS	RPMI 5 mM glucose + 10% dialyzed FBS
P12-Ichikawa [3]	446	439	446
SEM cells [2]	429	464	469

cell viability [%]
Details	HPLM + 10% dialyzed FBS	RPMI 5 mM glucose + 10% FBS	RPMI 5 mM glucose + 10% dialyzed FBS
NOMO1 [4], 0.000781 µM	–	118	–
NOMO1 [4], 0.00234 µM	–	114	–
NOMO1 [4], 0.00702 µM	–	127	–
NOMO1 [4], 0.0211 µM	–	105	–
NOMO1 [4], 0.0632 µM	–	125	–
NOMO1 [4], 0.19 µM	–	107	–
NOMO1 [4], 0.569 µM	–	113	–
NOMO1 [4], 1.71 µM	–	121	–
NOMO1 [4], 5.12 µM	–	108	–
NOMO1 [4], 15.4 µM	–	110	–
NOMO1 [4], 46.1 µM	–	99.8	–
SEM cells [5], 0.000781 µM	133	120	119
SEM cells [5], 0.00234 µM	114	126	107
SEM cells [5], 0.00702 µM	119	121	128
SEM cells [5], 0.0211 µM	113	128	125
SEM cells [5], 0.0632 µM	112	127	137
SEM cells [5], 0.19 µM	113	122	119
SEM cells [5], 0.569 µM	124	126	120
SEM cells [5], 1.71 µM	119	122	113
SEM cells [5], 5.12 µM	108	122	126
SEM cells [5], 15.4 µM	111	112	118
SEM cells [5], 46.1 µM	80.9	83	84.9

C=C[C@H]1CN2CCC1C[C@H]2[C@H](O)c1ccnc2ccccc12 (stereo not given in full)
AUC of viability dose-response curve
Details	NOMO1 [1]	P12-Ichikawa [3]	SEM cells [2]
HPLM + 10% dialyzed FBS	451	458	449
RPMI 5 mM glucose + 10% FBS	461	451	441
RPMI 5 mM glucose + 10% dialyzed FBS	433	461	452

SEM cells [5], RPMI 5 mM glucose + 10% dialyzed FBS
Details	cell viability [%]
0.000781 µM	123
0.00234 µM	120
0.00702 µM	122
0.0211 µM	133
0.0632 µM	126
0.19 µM	138
0.569 µM	132
1.71 µM	133
5.12 µM	108
15.4 µM	110
46.1 µM	55.1

NC(=O)c1ncn([C@@H]2O[C@H](CO)[C@@H](O)[C@H]2O)c1N
AUC of viability dose-response curve
Details	NOMO1 [1]	P12-Ichikawa [3]	SEM cells [2]
HPLM + 10% dialyzed FBS	468	467	443
RPMI 5 mM glucose + 10% FBS	469	447	372
RPMI 5 mM glucose + 10% dialyzed FBS	465	455	458

Details	cell viability [%]
NOMO1 [4], HPLM + 10% dialyzed FBS, 0.000781 µM	127
NOMO1 [4], HPLM + 10% dialyzed FBS, 0.00234 µM	111
NOMO1 [4], HPLM + 10% dialyzed FBS, 0.00702 µM	96
NOMO1 [4], HPLM + 10% dialyzed FBS, 0.0211 µM	136
NOMO1 [4], HPLM + 10% dialyzed FBS, 0.0632 µM	111
NOMO1 [4], HPLM + 10% dialyzed FBS, 0.19 µM	121
NOMO1 [4], HPLM + 10% dialyzed FBS, 0.569 µM	123
NOMO1 [4], HPLM + 10% dialyzed FBS, 1.71 µM	123
NOMO1 [4], HPLM + 10% dialyzed FBS, 5.12 µM	126
NOMO1 [4], HPLM + 10% dialyzed FBS, 15.4 µM	115
NOMO1 [4], HPLM + 10% dialyzed FBS, 46.1 µM	83
P12-Ichikawa [6], HPLM + 10% dialyzed FBS, 0.000781 µM	120
P12-Ichikawa [6], HPLM + 10% dialyzed FBS, 0.00234 µM	124
P12-Ichikawa [6], HPLM + 10% dialyzed FBS, 0.00702 µM	120
P12-Ichikawa [6], HPLM + 10% dialyzed FBS, 0.0211 µM	119
P12-Ichikawa [6], HPLM + 10% dialyzed FBS, 0.0632 µM	122
P12-Ichikawa [6], HPLM + 10% dialyzed FBS, 0.19 µM	121
P12-Ichikawa [6], HPLM + 10% dialyzed FBS, 0.569 µM	122
P12-Ichikawa [6], HPLM + 10% dialyzed FBS, 1.71 µM	117
P12-Ichikawa [6], HPLM + 10% dialyzed FBS, 5.12 µM	115
P12-Ichikawa [6], HPLM + 10% dialyzed FBS, 15.4 µM	115
P12-Ichikawa [6], HPLM + 10% dialyzed FBS, 46.1 µM	104
SEM cells [5], RPMI 5 mM glucose + 10% FBS, 0.000781 µM	81.8
SEM cells [5], RPMI 5 mM glucose + 10% FBS, 0.00234 µM	95.1
SEM cells [5], RPMI 5 mM glucose + 10% FBS, 0.00702 µM	89.9
SEM cells [5], RPMI 5 mM glucose + 10% FBS, 0.0211 µM	72.7
SEM cells [5], RPMI 5 mM glucose + 10% FBS, 0.0632 µM	95
SEM cells [5], RPMI 5 mM glucose + 10% FBS, 0.19 µM	83.1
SEM cells [5], RPMI 5 mM glucose + 10% FBS, 0.569 µM	91.7
SEM cells [5], RPMI 5 mM glucose + 10% FBS, 1.71 µM	68
SEM cells [5], RPMI 5 mM glucose + 10% FBS, 5.12 µM	66.6
SEM cells [5], RPMI 5 mM glucose + 10% FBS, 15.4 µM	69.7
SEM cells [5], RPMI 5 mM glucose + 10% FBS, 46.1 µM	18.9
SEM cells [5], RPMI 5 mM glucose + 10% dialyzed FBS, 0.000781 µM	120
SEM cells [5], RPMI 5 mM glucose + 10% dialyzed FBS, 0.00234 µM	113
SEM cells [5], RPMI 5 mM glucose + 10% dialyzed FBS, 0.00702 µM	116
SEM cells [5], RPMI 5 mM glucose + 10% dialyzed FBS, 0.0211 µM	120
SEM cells [5], RPMI 5 mM glucose + 10% dialyzed FBS, 0.0632 µM	136
SEM cells [5], RPMI 5 mM glucose + 10% dialyzed FBS, 0.19 µM	109
SEM cells [5], RPMI 5 mM glucose + 10% dialyzed FBS, 0.569 µM	121
SEM cells [5], RPMI 5 mM glucose + 10% dialyzed FBS, 1.71 µM	115
SEM cells [5], RPMI 5 mM glucose + 10% dialyzed FBS, 5.12 µM	122
SEM cells [5], RPMI 5 mM glucose + 10% dialyzed FBS, 15.4 µM	114
SEM cells [5], RPMI 5 mM glucose + 10% dialyzed FBS, 46.1 µM	31.5
